Results on 8 compounds are retold here after patent US20250082660A1 (priority 2023, published 2025).

Where a name gives a salt, the structure may show the parent alone. Read-outs that look alike come from different tables or passages of the source.

Data set [1] addresses T1, cytosolic phospholipase A2 (cPLA2, PLA2G4) (Homo sapiens, UniProt P47712).
T1 sequence (P47712 1-749): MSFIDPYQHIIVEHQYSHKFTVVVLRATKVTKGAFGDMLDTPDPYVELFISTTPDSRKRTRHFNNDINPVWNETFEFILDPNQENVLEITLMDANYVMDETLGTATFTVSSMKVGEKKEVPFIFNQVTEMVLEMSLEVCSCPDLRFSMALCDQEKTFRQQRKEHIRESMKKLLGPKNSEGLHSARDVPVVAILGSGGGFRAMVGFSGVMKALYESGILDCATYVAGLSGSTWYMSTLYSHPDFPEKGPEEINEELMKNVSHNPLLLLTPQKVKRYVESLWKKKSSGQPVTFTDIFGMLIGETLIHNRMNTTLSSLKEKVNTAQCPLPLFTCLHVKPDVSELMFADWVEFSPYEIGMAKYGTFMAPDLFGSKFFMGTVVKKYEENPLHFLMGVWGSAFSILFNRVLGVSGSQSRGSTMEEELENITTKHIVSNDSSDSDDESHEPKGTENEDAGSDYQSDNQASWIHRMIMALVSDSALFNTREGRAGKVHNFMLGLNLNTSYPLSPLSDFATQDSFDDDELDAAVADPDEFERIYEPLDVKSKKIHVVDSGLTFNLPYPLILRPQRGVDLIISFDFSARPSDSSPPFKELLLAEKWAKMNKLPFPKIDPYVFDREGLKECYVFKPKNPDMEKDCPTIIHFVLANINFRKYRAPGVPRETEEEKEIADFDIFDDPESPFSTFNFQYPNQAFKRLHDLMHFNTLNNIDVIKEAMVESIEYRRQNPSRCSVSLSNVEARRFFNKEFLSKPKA
Put plainly: cPLA2 phosphorylation.

The nature of data set [2]: Fecal phytochemistry: metabolism of Senna ingredients. Type of data set: in vivo, C57BL/6J Mus musculus. The note with it: Senna group, feces. The source says:
First, the phytochemical compounds in CDD-2101 and feces were characterized using the UHPLC/Q-TOF-MS with the same parameters as for the metabolomics analysis described in section 1.4. Potential active compounds were selected because of their frequent use in pharmacology study, and their high abundance in CDD-2101 and feces. Those compounds were confirmed by commercial standards. Second, the biological targets of these compounds were gathered by searching in BindingDB (https://www.bindingdb.org/) and STITCH (http://stitch.embl.de/). The candidate targets of constipation were gathered by searching on the keyword “constipation” in GeneCards (https://www.genecards.org/). Third, these targets were manually checked in full texts of relevant references. The confirmed proteins were considered to be the predicted targets of CDD-2101 against constipation.

The conditions of data set [3]: cited from earlier work.
Another data set concerns the target T2, CYP1A1 enzyme (Homo sapiens, UniProt P04798).
T2 sequence (P04798 1-512): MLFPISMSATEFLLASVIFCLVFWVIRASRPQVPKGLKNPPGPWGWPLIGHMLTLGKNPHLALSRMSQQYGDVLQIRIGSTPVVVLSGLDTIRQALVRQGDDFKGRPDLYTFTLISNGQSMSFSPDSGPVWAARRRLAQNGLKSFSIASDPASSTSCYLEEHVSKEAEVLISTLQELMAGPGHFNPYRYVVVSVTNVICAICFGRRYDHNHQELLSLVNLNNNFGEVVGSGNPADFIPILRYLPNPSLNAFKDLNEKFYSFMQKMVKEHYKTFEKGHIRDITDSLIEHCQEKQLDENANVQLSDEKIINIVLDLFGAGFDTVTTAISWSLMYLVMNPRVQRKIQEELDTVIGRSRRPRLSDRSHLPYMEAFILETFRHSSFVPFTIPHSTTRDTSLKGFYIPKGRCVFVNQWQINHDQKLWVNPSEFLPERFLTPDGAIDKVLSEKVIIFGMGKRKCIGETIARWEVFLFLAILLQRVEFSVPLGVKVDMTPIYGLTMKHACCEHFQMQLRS
The note with it: cited from earlier work.

The subject of data set [4] is loperamide-induced acute model mice. Format: in vivo, C57BL/6J Mus musculus. The settings on record: oral loperamide 2.5 mg/kg, 0-9 h after treatment, mean±SEM, n=6. How it is done: Six-week-old male (18-22 g) C57BL/6J Mus musculus were obtained from Laboratory Animal Services Center, The Chinese University of Hong Kong. All mice were housed in an environmentally controlled room (22±1° C.; ˜ 50% relative humidity) with a 12-h light-dark cycle, and fed a normal rodent diet and water. Animal care was approved by the Committee on the Use of Human and Animal Subjects in Teaching and Research, Hong Kong Baptist University (REC/19-20/0300).
Mice were randomly assigned to the following four groups (n=6 per group): control group, loperamide group, loperamide+CDD-2101 group, and loperamide+Senna group. The mice in the control group were only orally treated with Milli-Q water. The other groups were orally administrated with loperamide (2.5 mg/kg body weight). CDD-2101 and Senna were administered based on the clinical dosages of MZRW and Senna, respectively, used in constipation patients. The CDD-2101 group was orally administered with 30 g/d/kg body weight. The Senna group was given 8 tablets/day.
All fecal pellets produced during the first 5 min were discarded. Then fecal samples were collected, and the frequency was recorded for the next 9 h. Fecal pellets were put into tubes set in dry ice. After collection, they were stored at −80° C. for further use. Gastrointestinal motility was calculated from pellet frequency. The secretion was determined by pellet water content.

A further data set deals with T3, CYP1A2 (Homo sapiens, UniProt P05177).
T3 sequence (P05177 1-516): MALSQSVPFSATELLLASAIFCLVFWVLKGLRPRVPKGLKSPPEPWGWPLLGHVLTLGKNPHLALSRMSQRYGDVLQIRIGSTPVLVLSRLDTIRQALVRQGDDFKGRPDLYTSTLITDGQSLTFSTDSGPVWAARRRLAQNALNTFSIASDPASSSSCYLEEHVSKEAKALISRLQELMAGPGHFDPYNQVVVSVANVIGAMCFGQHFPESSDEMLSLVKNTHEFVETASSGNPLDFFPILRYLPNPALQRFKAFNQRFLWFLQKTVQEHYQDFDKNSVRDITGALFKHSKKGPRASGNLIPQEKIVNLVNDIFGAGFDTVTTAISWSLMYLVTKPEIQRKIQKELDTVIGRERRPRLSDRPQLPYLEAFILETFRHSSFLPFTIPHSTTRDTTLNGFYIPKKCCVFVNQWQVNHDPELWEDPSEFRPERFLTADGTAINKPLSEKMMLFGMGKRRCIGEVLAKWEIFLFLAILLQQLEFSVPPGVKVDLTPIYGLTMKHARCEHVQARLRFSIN
The note with it: cited from earlier work.

In the next data set the target is T4, ALOX5 (Homo sapiens, UniProt P09917).
T4 sequence (P09917 1-674): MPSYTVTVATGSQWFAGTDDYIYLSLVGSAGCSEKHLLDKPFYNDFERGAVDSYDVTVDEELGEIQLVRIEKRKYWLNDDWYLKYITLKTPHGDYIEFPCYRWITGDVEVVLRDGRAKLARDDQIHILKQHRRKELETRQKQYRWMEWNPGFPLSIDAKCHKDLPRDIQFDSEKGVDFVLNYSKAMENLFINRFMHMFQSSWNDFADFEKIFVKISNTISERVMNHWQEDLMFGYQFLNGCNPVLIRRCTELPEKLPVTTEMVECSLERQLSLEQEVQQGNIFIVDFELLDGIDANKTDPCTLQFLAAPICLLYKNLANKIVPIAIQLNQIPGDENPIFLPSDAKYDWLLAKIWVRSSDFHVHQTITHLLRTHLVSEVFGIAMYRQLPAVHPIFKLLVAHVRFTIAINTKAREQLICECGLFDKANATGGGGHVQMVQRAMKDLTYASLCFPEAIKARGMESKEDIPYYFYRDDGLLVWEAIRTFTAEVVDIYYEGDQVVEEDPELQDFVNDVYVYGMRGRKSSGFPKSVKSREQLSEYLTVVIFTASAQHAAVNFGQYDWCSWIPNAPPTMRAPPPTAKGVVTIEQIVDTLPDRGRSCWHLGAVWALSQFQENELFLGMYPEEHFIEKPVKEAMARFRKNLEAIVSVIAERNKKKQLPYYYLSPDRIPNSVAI
The settings on record: in vitro and in vivo; cited from earlier work.

On to `C[C@]12C[C@@H](O)[C@@H]3C[C@@]1(O[C@@H]1O[C@H](CO)[C@@H](O)[C@H](O)[C@H]1O)[C@@]3(COC(=O)c1ccccc1)C(=O)O2` [albiflorin], for which the “cPLA2 (PLA2G4) phosphorylation” value in data set [1] is recorded as “stimulated”.
On to `O=C(O)c1cc(O)c2c(c1)[C@H]([C@H]1c3cc(C(=O)O)cc(O)c3C(=O)c3c(O[C@@H]4O[C@H](CO)[C@@H](O)[C@H](O)[C@H]4O)cccc31)c1cccc(O[C@@H]3O[C@H](CO)[C@@H](O)[C@H](O)[C@H]3O)c1C2=O` [sennoside A], for which the metabolite formed entry in data set [2] was “rhein”.
For the compound `COc1ccc([C@@H]2CC(=O)c3c(O)cc(O[C@@H]4O[C@H](CO[C@@H]5O[C@@H](C)[C@H](O)[C@@H](O)[C@H]5O)[C@@H](O)[C@H](O)[C@H]4O)cc3O2)cc1O` [hesperidin], in data set [3], the “metabolite formed in the colon” value is “hesperetin”.
With `COc1ccc([C@@H]2CC(=O)c3c(O)cc(O)cc3O2)cc1O` [hesperetin], on CYP1A1 enzyme, the “binding to CYP1A1 enzyme” value is “bind”.
Turning to `O=C1C[C@@H](c2ccc(O)cc2)Oc2cc(O)cc(O)c21` [naringenin], the “binding to CYP1A1 enzyme” value on CYP1A1 enzyme is recorded as “bind”.
Take `CN(C)C(=O)C(CCN1CCC(O)(c2ccc(Cl)cc2)CC1)(c1ccccc1)c1ccccc1` [loperamide, Loperamide hydrochloride]: in data set [4], the “cumulative number of fecal pellet” value was determined as 21.5±2.7 pellets/9 h and the “fecal pellet water content” value turned out to be 48.2±2.1%.
For `O=C(O)c1cc(O)c2c(c1)[C@@H]([C@H]1c3cc(C(=O)O)cc(O)c3C(=O)c3c(O[C@@H]4O[C@H](CO)[C@@H](O)[C@H](O)[C@H]4O)cccc31)c1cccc(O[C@@H]3O[C@H](CO)[C@@H](O)[C@H](O)[C@H]3O)c1C2=O` [sennoside B], in data set [2], the metabolite formed entry is “rhein”.
As for `C=CCc1ccc(O)c(-c2cc(CC=C)ccc2O)c1` [magnolol], the “inhibition of CYP1A2 enzyme” value on CYP1A2 is “strongly inhibit”. The “cPLA2 (PLA2G4) phosphorylation” value in data set [1] is “stimulated”. In addition, the “inhibition of ALOX5 enzyme” value on ALOX5 was “strongly inhibit”. The “binding to CYP1A1 enzyme” value at CYP1A1 enzyme (reported) is recorded as “bind”.
